# Measurements from patent US9187490B2, “Dimeric IAP inhibitors” (TetraLogic Pharmaceuticals Corporation, priority 2005, dated 2015).
# Target: T1, XIAP-BIR3 (Homo sapiens, UniProt P98170)
# T1 construct: 40 nM of XIAP-BIR3 for 15 min at RT
# Test: XIAP BIR-3 fluorescence polarization binding assay
# Conditions: 5 nM AbuRPF-K(5-Fam)-NH2, 40 nM XIAP-BIR3, 15 min RT, pH 7.5; read-out: KD Range
# Experimental: Following incubation, the polarization values (mP) were measured on a Victor^2V using a 485 nm excitation filter and a 520 nm emission filter. IC50 values were determined from the plot using nonlinear least-squares analysis using GraphPad Prism.
# T1 sequence (P98170 241-356 limits assumed): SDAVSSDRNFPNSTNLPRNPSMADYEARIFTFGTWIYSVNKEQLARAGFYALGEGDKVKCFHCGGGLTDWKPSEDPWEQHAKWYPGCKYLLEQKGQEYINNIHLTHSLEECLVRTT
row,SMILES,Kd
1,"CNC(C)C(=O)NC(C(=O)N1CCCC1Cc1c(-c2ccc(-c3c(CC4CCCN4C(=O)C(NC(=O)C(C)NC)C(C)(C)C)c4ccc(F)cc4n3CCO)cc2)n(CCO)c2cc(F)ccc12)C(C)(C)C (single isomer, unassigned) [Entry 60]",1000 to 10000 nM
2,"CC(N)C(=O)NC(C(=O)N1CCCC1Cc1c(-c2ccc(-c3oc4ccccc4c3CC3CCCN3C(=O)C(NC(=O)C(C)N)C(C)C)cc2)oc2ccccc12)C(C)C (single isomer, unassigned) [Entry 61]",> 10000 nM
3,"CNC(C)C(=O)NC(C(=O)N1CCCC1Cc1c(-c2ccc(-c3c(CC4CCCN4C(=O)C(NC(=O)C(C)NC)C(C)(C)C)c4ccc(F)cc4n3CCO)cc2)n(CCO)c2cc(F)ccc12)C(C)(C)C (single isomer, unassigned) [Entry 487]",< 100 nM
4,CC(C)[C@H](NC(=O)[C@H](C)N)C(=O)N1CCC[C@H]1Cc1c(/C=C/c2oc3ccccc3c2C[C@@H]2CCCN2C(=O)[C@@H](NC(=O)[C@H](C)N)C(C)C)oc2ccccc12 [Entry 2],< 100 nM
5,CC(C)[C@H](NC(=O)[C@H](C)N)C(=O)N1CCC[C@H]1Cc1c(CCc2oc3ccccc3c2C[C@@H]2CCCN2C(=O)[C@@H](NC(=O)[C@H](C)N)C(C)C)oc2ccccc12 [Entry 3],< 100 nM
6,CC(C)[C@H](NC(=O)CN)C(=O)N1CCC[C@H]1Cc1c(-c2ccc(-c3oc4ccccc4c3C[C@@H]3CCCN3C(=O)[C@@H](NC(=O)[C@H](C)N)C(C)C)cc2)oc2ccccc12 [Entry 4],< 100 nM
7,C[C@H](N)C(=O)N[C@H](C(=O)N1CCC[C@H]1Cc1c(-c2ccc(-c3oc4ccccc4c3C[C@@H]3CCCN3C(=O)[C@@H](NC(=O)[C@H](C)N)C(C)(C)C)cc2)oc2ccccc12)C(C)(C)C [Entry 7],< 100 nM
8,CN[C@@H](C)C(=O)N[C@H](C(=O)N1CCC[C@H]1Cc1c(-c2ccc(-c3oc4ccccc4c3C[C@@H]3CCCN3C(=O)[C@@H](NC(=O)[C@H](C)NC)C(C)(C)C)cc2)oc2ccccc12)C(C)(C)C [Entry 8],< 100 nM
9,CC[C@H](N)C(=O)N[C@H](C(=O)N1CCC[C@H]1Cc1c(-c2ccc(-c3oc4ccccc4c3C[C@@H]3CCCN3C(=O)[C@@H](NC(=O)[C@@H](N)CC)C(C)(C)C)cc2)oc2ccccc12)C(C)(C)C [Entry 9],100 to 1000 nM
10,CN[C@@H](C)C(=O)N[C@H](C(=O)N1CCC[C@H]1Cc1c(-c2ccc(-c3oc4ccccc4c3C[C@@H]3CCCN3C(=O)[C@@H](NC(=O)[C@H](C)NC)C(C)C)cc2)oc2ccccc12)C(C)C [Entry 10],< 100 nM
11,CC[C@H](N)C(=O)N[C@H](C(=O)N1CCC[C@H]1Cc1c(-c2ccc(-c3oc4ccccc4c3C[C@@H]3CCCN3C(=O)[C@@H](NC(=O)[C@@H](N)CC)C(C)C)cc2)oc2ccccc12)C(C)C [Entry 11],< 100 nM
12,C[C@H](N)C(=O)N[C@H](C(=O)N1CCC[C@H]1Cc1c(-c2ccc(-c3oc4ccccc4c3C[C@@H]3CCCN3C(=O)[C@@H](NC(=O)[C@H](C)N)C3CCCCC3)cc2)oc2ccccc12)C1CCCCC1 [Entry 12],< 100 nM
13,CN[C@@H](C)C(=O)N[C@H](C(=O)N1CCC[C@H]1Cc1c(-c2ccc(-c3oc4ccccc4c3C[C@@H]3CCCN3C(=O)[C@@H](NC(=O)[C@H](C)NC)C3CCCCC3)cc2)oc2ccccc12)C1CCCCC1 [Entry 13],< 100 nM
14,CC[C@H](N)C(=O)N[C@H](C(=O)N1CCC[C@H]1Cc1c(-c2ccc(-c3oc4ccccc4c3C[C@@H]3CCCN3C(=O)[C@@H](NC(=O)[C@@H](N)CC)C3CCCCC3)cc2)oc2ccccc12)C1CCCCC1 [Entry 14],100 to 1000 nM
15,CN[C@@H](C)C(=O)N[C@H](C(=O)N1CCC[C@H]1Cc1c(-c2ccc(-c3oc4ccccc4c3C[C@@H]3CCCN3C(=O)[C@@H](NC(=O)[C@H](C)NC)[C@@H](C)O)cc2)oc2ccccc12)[C@@H](C)O [Entry 15],< 100 nM
16,CN[C@@H](C)C(=O)N[C@H](C(=O)N1CCC[C@H]1Cc1c(-c2ccc(-c3[nH]c4cc(F)ccc4c3C[C@@H]3CCCN3C(=O)[C@@H](NC(=O)[C@H](C)NC)C(C)C)cc2)[nH]c2cc(F)ccc12)C(C)C [Entry 16],< 100 nM
17,CC(C)[C@H](NC(=O)[C@H](C)N)C(=O)N1CCC[C@H]1Cc1c(-c2ccc(-c3[nH]c4cc(F)ccc4c3C[C@@H]3CCCN3C(=O)[C@@H](NC(=O)[C@H](C)N)C(C)C)s2)[nH]c2cc(F)ccc12 [Entry 17],< 100 nM
18,CN[C@@H](C)C(=O)N[C@H](C(=O)N1CCC[C@H]1Cc1c(-c2ccc(-c3[nH]c4cc(F)ccc4c3C[C@@H]3CCCN3C(=O)[C@@H](NC(=O)[C@H](C)NC)C3CCCCC3)s2)[nH]c2cc(F)ccc12)C1CCCCC1 [Entry 18],< 100 nM
19,C[C@H](N)C(=O)N[C@H](C(=O)N1CCC[C@H]1Cc1c(-c2ccc(-c3[nH]c4cc(F)ccc4c3C[C@@H]3CCCN3C(=O)[C@@H](NC(=O)[C@H](C)N)C3CCCCC3)cc2)[nH]c2cc(F)ccc12)C1CCCCC1 [Entry 19],< 100 nM

row,SMILES,Kd
1,CN[C@@H](C)C(=O)N[C@H](C(=O)N1CCC[C@H]1Cc1c(-c2ccc(-c3[nH]c4cc(F)ccc4c3C[C@@H]3CCCN3C(=O)[C@@H](NC(=O)[C@H](C)NC)C3CCCCC3)cc2)[nH]c2cc(F)ccc12)C1CCCCC1 [Entry 20],< 100 nM
2,CN[C@@H](C)C(=O)N[C@H](C(=O)N1C[C@H](O)C[C@H]1Cc1c(-c2ccc(-c3[nH]c4ccccc4c3C[C@@H]3C[C@@H](O)CN3C(=O)[C@@H](NC(=O)[C@H](C)NC)C(C)C)cc2)[nH]c2ccccc12)C(C)C [Entry 21],100 to 1000 nM
3,CN[C@@H](C)C(=O)N[C@H](C(=O)N1C[C@H](O)C[C@H]1Cc1c(-c2ccc(-c3[nH]c4ccccc4c3C[C@@H]3C[C@@H](O)CN3C(=O)[C@@H](NC(=O)[C@H](C)NC)C(C)(C)C)cc2)[nH]c2ccccc12)C(C)(C)C [Entry 22],100 to 1000 nM
4,CN[C@@H](C)C(=O)N[C@H](C(=O)N1CCC[C@H]1Cc1c(-c2ccc(-c3[nH]c4ccc(F)cc4c3C[C@@H]3CCCN3C(=O)[C@@H](NC(=O)[C@H](C)NC)C(C)C)cc2)[nH]c2ccc(F)cc12)C(C)C [Entry 23],< 100 nM
5,CN[C@@H](C)C(=O)N[C@H](C(=O)N1C[C@@H](O)C[C@H]1Cc1c(-c2ccc(-c3[nH]c4ccccc4c3C[C@@H]3C[C@H](O)CN3C(=O)[C@@H](NC(=O)[C@H](C)NC)C(C)(C)C)cc2)[nH]c2ccccc12)C(C)(C)C [Entry 24],< 100 nM
6,CN[C@@H](C)C(=O)N[C@H](C(=O)N1CCC[C@H]1Cc1c(-c2ccc(-c3[nH]c4cc(F)ccc4c3C[C@@H]3CCCN3C(=O)[C@@H](NC(=O)[C@H](C)NC)[C@@H](C)OCc3ccccc3)cc2)[nH]c2cc(F)ccc12)[C@@H](C)OCc1ccccc1 [Entry 25],< 100 nM
7,CN[C@@H](C)C(=O)N[C@H](C(=O)N1CCC[C@H]1Cc1c(-c2ccc(-c3[nH]c4cc(F)ccc4c3C[C@@H]3CCCN3C(=O)[C@@H](NC(=O)[C@H](C)NC)[C@@H](C)OCc3ccccc3)cc2)[nH]c2cc(F)ccc12)[C@@H](C)O [Entry 26],< 100 nM
8,CN[C@@H](C)C(=O)N[C@H](C(=O)N1CCC[C@H]1Cc1c(-c2ccc(-c3[nH]c4cc(F)ccc4c3C[C@@H]3CCCN3C(=O)[C@@H](NC(=O)[C@H](C)NC)[C@@H](C)O)cc2)[nH]c2cc(F)ccc12)[C@@H](C)O [Entry 27],< 100 nM
9,CN[C@@H](C)C(=O)N[C@H](C(=O)N1C[C@@H](O)C[C@H]1Cc1c(-c2ccc(-c3[nH]c4cc(F)ccc4c3C[C@@H]3C[C@H](O)CN3C(=O)[C@@H](NC(=O)[C@H](C)NC)[C@@H](C)O)cc2)[nH]c2cc(F)ccc12)[C@@H](C)O [Entry 28],< 100 nM
10,CN[C@@H](C)C(=O)N[C@H](C(=O)N1C[C@@H](O)C[C@H]1Cc1c(-c2ccc(-c3[nH]c4cc(F)ccc4c3C[C@@H]3C[C@H](O)CN3C(=O)[C@@H](NC(=O)[C@H](C)NC)C(C)C)cc2)[nH]c2cc(F)ccc12)C(C)C [Entry 29],< 100 nM
11,CN[C@@H](C)C(=O)N[C@H](C(=O)N1C[C@@H](O)C[C@H]1Cc1c(-c2ccc(-c3[nH]c4cc(F)ccc4c3C[C@@H]3C[C@H](O)CN3C(=O)[C@@H](NC(=O)[C@H](C)NC)C(C)(C)C)cc2)[nH]c2cc(F)ccc12)C(C)(C)C [Entry 30],< 100 nM
12,CN[C@@H](C)C(=O)N[C@H](C(=O)N1CCC[C@H]1Cc1c(-c2ccc(-c3[nH]c4cc(F)ccc4c3C[C@@H]3CCCN3C(=O)[C@@H](NC(=O)[C@H](C)NC)[C@@H](C)OCc3ccccc3)cc2)[nH]c2cc(F)ccc12)[C@@H](C)O [Entry 32],< 100 nM
13,CN[C@@H](C)C(=O)N[C@H](C(=O)N1CCC[C@H]1Cc1c(-c2ccc(-c3[nH]c4cc(F)ccc4c3C[C@@H]3CCCN3C(=O)[C@@H](NC(=O)[C@H](C)NC)[C@@H](C)OCc3ccccc3)cc2)[nH]c2cc(F)ccc12)[C@@H](C)OCc1ccccc1 [Entry 33],< 100 nM
14,CN[C@@H](C)C(=O)N[C@H](C(=O)N1C[C@@H](O)C[C@H]1Cc1c(-c2ccc(-c3[nH]c4ccccc4c3C[C@@H]3C[C@H](O)CN3C(=O)[C@@H](NC(=O)[C@H](C)NC)C(C)(C)C)cc2)[nH]c2ccccc12)C(C)(C)C [Entry 34],< 100 nM
15,CN[C@@H](C)C(=O)N[C@H](C(=O)N1CCC[C@H]1Cc1c(-c2ccc(-c3[nH]c4ccc(F)cc4c3C[C@@H]3CCCN3C(=O)[C@@H](NC(=O)[C@H](C)NC)C(C)C)cc2)[nH]c2ccc(F)cc12)C(C)C [Entry 35],< 100 nM
16,CN[C@@H](C)C(=O)N[C@H](C(=O)N1C[C@H](O)C[C@H]1Cc1c(-c2ccc(-c3[nH]c4ccccc4c3C[C@@H]3C[C@@H](O)CN3C(=O)[C@@H](NC(=O)[C@H](C)NC)C(C)(C)C)cc2)[nH]c2ccccc12)C(C)(C)C [Entry 36],100 to 1000 nM
17,CN[C@@H](C)C(=O)N[C@H](C(=O)N1C[C@H](O)C[C@H]1Cc1c(-c2ccc(-c3[nH]c4ccccc4c3C[C@@H]3C[C@@H](O)CN3C(=O)[C@@H](NC(=O)[C@H](C)NC)C(C)C)cc2)[nH]c2ccccc12)C(C)C [Entry 37],100 to 1000 nM
18,CN[C@@H](C)C(=O)N[C@H](C(=O)N1CCC[C@H]1Cc1c(-c2ccc(-c3[nH]c4cc(F)ccc4c3C[C@@H]3CCCN3C(=O)[C@@H](NC(=O)[C@H](C)NC)C3CCCCC3)cc2)[nH]c2cc(F)ccc12)C1CCCCC1 [Entry 38],< 100 nM

# Same assay, conditions: XIAP BIR-3, FIG. 1
row,SMILES,increase in binding affinity relative to the Smac tetrapeptide (AVPI)
1,CC(C)[C@H](NC(=O)[C@H](C)N)C(=O)N1CCC[C@H]1Cc1c(-c2ccc(-c3[nH]c4cc(F)ccc4c3C[C@@H]3CCCN3C(=O)[C@@H](NC(=O)[C@H](C)N)C(C)C)s2)[nH]c2cc(F)ccc12 [Entry 17],"30,000 fold"
